Values of other authors, collected in US7799756B2, “Processes for stereoselective synthesis of trans ISATX247” (Albany Molecular Research, Inc., priority 2004, dated 2010).

Legend:
[1] = phase IIa, kidney transplantation, mixture of cis and trans isomers
[2] = over natural cyclosporins and presently known cyclosporin derivatives
[3] = compared to the corresponding cis-isomer
[4] = compared to the corresponding cis-isomer; remark: listed apart in the source

Row | Molecule | clinical trial outcome [1] | potency [2] | activity on immunosuppression [3] | therapeutic index [4]
1 | C=CC=CC[C@@H](C)[C@@H](O)C1C(=O)N[C@H](CC)C(=O)N(C)CC(=O)N(C)[C@@H](CC(C)C)C(=O)N[C@H](C(C)C)C(=O)N(C)[C@H](CC(C)C)C(=O)N[C@H](C)C(=O)N[C@@H](C)C(=O)N(C)[C@H](CC(C)C)C(=O)N(C)[C@H](CC(C)C)C(=O)N(C)[C@H](C(C)C)C(=O)N1C (stereo partly drawn) [ISATX247, cyclo {(E,Z)-(2S,3R,4R)-3-hydoxy-4-methyl-2-(methylamino)-6,8-nonadienoyl-L-2-aminobutyryl-N-methyl-glycyl-N -methyl-L-leucyl-L-valyl-N-methyl-L-leucyl-L-alanyl-D-alanyl-N-methyl-L-leucyl-N-methyl-L-leucyl-N-methyl-L-valyl}] | positive results | enhanced potency | – | –
2 | trans ISATX247 | – | – | better activity on immunosuppression | improved therapeutic index
